Assay results taken from PMC12720774, “Detergents alter the stability and lipid binding properties of the CD1d immunoreceptor” (Protein Science : A Publication of the Protein Society, 2025).
“And” between values parts separate entries of the source, which are not always exact repeats. Equal entries are not always repeated. Where two headings read alike, the source gives them in different places.

Experiments:
[1] = molecular target: T1, recombinant human CD1d ectodomain/β2m complex (hCD1d) (Homo sapiens, UniProt P15813); assay: Intrinsic tryptophan fluorescence (ITF) binding assay; conditions: ITF - Kd (uM) average, Figure 5A; detergent binding to hCD1d
T1 construct: TEV protease cleavage site ENLYFQS (C); BirA biotinylation site (C); His7 (C); made in house; host or cells: TurboCHO cells (GenScript)
Procedure: (§1) For ITF assays, the concentration of hCD1d was kept constant, and intrinsic Trp fluorescence (excitation at 285 nm, emission at 335 nm) was measured as a function of increasing detergent concentration (Fossum et al., [2023]) (Figure S2). The change in relative fluorescence intensity (F − F 0/F 0) provides an indication of binding. […] This was due to limited detergent solubility and decreased hCD1d stability in the presence of a large excess of detergent (see below). […] SDS was the exception, for which Trp fluorescence of hCD1d decreased with added detergent. This could indicate a unique conformational change or destabilization of the protein.
(§2) ITF spectra were recorded from 300 to 500 nm using a Horiba FL3‐21 Fluorometer with the excitation wavelength of 285 nm and excitation/emission slits of 6.2 nm. Fluorescence spectra of 50 to 100 nM hCD1d were acquired in the absence and presence of detergents in 1X PBS pH 7.4 at 25°C. Prior to data acquisition, hCD1d and detergent or lipid samples were incubated at 37°C overnight (~12 h) to simulate in vitro and in vivo loading conditions. […] For 18:1 LPC experiments, fluorescence spectra of 100 nM hCD1d were acquired in the absence and presence of 18:1 LPC in 1X PBS pH 7.4 at 25°C. […] For all ITF experiments, the change in fluorescence signal (F − F 0/F 0) was determined at 335 nm. Three replicates were performed, and data are presented as the mean ± standard deviation (n = 3). K D values were fitted with non‐linear regression in GraphPad Prism v10.1.

[2] = molecular target: T2, recombinant human CD1d ectodomain/β2m complex (hCD1d) (Homo sapiens, UniProt P15813+P61769); assay: as above
T2 construct: TEV protease cleavage site ENLYFQS (C); BirA biotinylation site (C); His7 (C); made in house; host or cells: TurboCHO cells (GenScript)
Procedure: as §1, §2

CD1c = test system: CD1c; design: method as in Mansour et al., 2016; conditions: ref Mansour et al., 2016; cited from earlier work
[3] = molecular target: T3, CSP 319‐328/HLA‐B*08:01/hβ2M complex (Homo sapiens, UniProt P01889, A93T/A95T/D138N/E176V/E187T/K202T/Q94N/R180D/S35A/V36M/Y33D/Y91F); assay: ITF with peptide/HLA complex; type: binding; conditions: for ITF change in Trp fluorescence (F-F0/F0): peptide/HLA with Tween 20, replicates
T3 construct: made in house
Description: (§3) To determine whether detergent effects were specific to hCD1d, we performed analogous ITF, MST, and nanoDSF experiments with a peptide/HLA complex. HLA‐B*08:01, presenting the Plasmodium falciparum derived peptide […] ([…]), was selected as a representative model system since the peptide antigen contains hydrophilic solvent‐exposed residues in the antigen‐binding groove (Frooman et al., [2025]). Although structurally similar to that of hCD1d, HLA‐B*08:01 shares low sequence identity (Figure S10a). […] By nanoDSF, ODG caused minimal destabilization of either complex (ΔT m≈−0.2 to −0.8°C; Figure S10f). […] We posit that lipid‐specific unloading effects of detergent are due to either hydrophobic residues in the antigen binding groove (detergent‐CD1d interactions) and/or the hydrophobic nature of the lipid antigen (detergent‐lipid interactions).
(§4) For comparison with peptide/HLA molecules, we prepared recombinant CSP 319‐328/HLA‐B*08:01/hβ2M complex using in vitro refolding methods fully described previously (Frooman et al., [2025]). The peptide sequence for CSP 319–328 is […]. This peptide was chosen since it contains Lys, Gln, and Asp residues predicted to be solvent‐exposed in the HLA‐B*08:01 binding groove (Frooman et al., [2025]).
ITF experiments with peptide/HLA molecules and detergents were performed using an analogous protocol.

[4] = molecular target: T3, CSP 319‐328/HLA‐B*08:01/hβ2M complex; assay: nanoDSF with peptide/HLA complex; type: binding; conditions: for nanoDSF melting temperature of peptide/HLA: peptide/HLA with Tween 20, replicates
Description: as §3, §4
NanoDSF experiments with peptide/HLA molecules and detergents were performed using an analogous protocol.

T2 sequence (P61769+P15813 fused): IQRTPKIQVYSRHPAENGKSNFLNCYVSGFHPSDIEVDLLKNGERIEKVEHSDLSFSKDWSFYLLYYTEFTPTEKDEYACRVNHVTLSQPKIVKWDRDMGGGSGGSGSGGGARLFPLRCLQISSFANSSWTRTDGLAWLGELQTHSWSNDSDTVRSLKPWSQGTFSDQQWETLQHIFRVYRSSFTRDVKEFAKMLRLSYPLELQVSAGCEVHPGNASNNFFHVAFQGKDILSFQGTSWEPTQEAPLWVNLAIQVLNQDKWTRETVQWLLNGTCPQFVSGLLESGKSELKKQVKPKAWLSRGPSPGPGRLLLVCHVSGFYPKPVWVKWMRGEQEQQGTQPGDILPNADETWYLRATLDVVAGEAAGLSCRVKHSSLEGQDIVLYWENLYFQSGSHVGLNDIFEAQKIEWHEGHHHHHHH
T1 sequence (P15813 whole entry, looked up, the tested form may be a part, one chain of several): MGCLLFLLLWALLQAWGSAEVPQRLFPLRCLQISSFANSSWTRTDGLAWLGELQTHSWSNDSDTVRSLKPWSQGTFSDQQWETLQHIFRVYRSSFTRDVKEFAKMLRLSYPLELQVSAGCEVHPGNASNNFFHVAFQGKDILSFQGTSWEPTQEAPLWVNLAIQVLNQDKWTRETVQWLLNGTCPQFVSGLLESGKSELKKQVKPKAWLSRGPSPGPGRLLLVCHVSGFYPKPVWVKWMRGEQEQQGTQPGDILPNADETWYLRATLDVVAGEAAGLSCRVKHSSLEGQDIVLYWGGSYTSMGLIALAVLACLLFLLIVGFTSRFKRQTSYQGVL

**Q.** Which Kd [1] does the source give for `C[C@H](CCC(=O)NCCC[N+](C)(C)CCCS(=O)(=O)[O-])[C@H]1CC[C@H]2[C@@H]3[C@H](O)C[C@@H]4C[C@H](O)CC[C@]4(C)[C@H]3C[C@H](O)[C@]12C` [CHAPS, 3‐((3‐cholamidopropyl) dimethylammonio)‐1‐propanesulfonate] here?
**A.** The Kd was 269 µM.

**Q.** And the “binding to hCD1d by ITF (in words)” value [2]?
**A.** The value was “observable binding”.

**Q.** And the “F-F0/F0 (rep 1-3)” value ([2]; 3.0518e-8 M detergent)?
**A.** The value was 0.

**Q.** And the “F-F0/F0 (rep 1-3)” value ([2]; 0.001 M detergent, 100 nM hCD1d)?
**A.** Its value is 0.1904 and 0.2276 and 0.116.

**Q.** What about the Kd ([2]; read-out: K D (ITF), detergent with 100 nM hCD1d, 25°C, 1X PBS pH 7.4, apparent) of the same molecule?
**A.** Its Kd is < 400 µM.

**Q.** And the “stripping of lipid antigens from CD1c (in words)” value (CD1c)?
**A.** The value was “not”.

**Q.** For Tween 20, which “F-F0/F0 (rep 1-3)” value ([2]; 3.0518e-8 M detergent) is on record?
**A.** Its value is 0.

**Q.** What about the “F-F0/F0 (rep 1-3)” value ([2]; 7.8125e-6 M detergent) of the same molecule?
**A.** Its value is 0.397 and 0.3783 and 0.411.

**Q.** And the “F-F0/F0 (rep 1-3)” value ([2]; 1.5625e-5 M detergent)?
**A.** Its value is 0.321 and 0.292 and 0.428.

**Q.** What about the “F-F0/F0 (rep 1-3)” value ([2]; 3.125e-5 M detergent) of the same molecule?
**A.** Its value is 0.321 and 0.2971 and 0.409.

**Q.** What about the “F-F0/F0 (rep 1-3)” value ([2]; 6.25e-5 M detergent) of the same molecule?
**A.** The value was 0.469 and 0.4298 and 0.387.

**Q.** What about the “F-F0/F0 (rep 1-3)” value ([2]; 0.000125 M detergent) of the same molecule?
**A.** Its value is 0.384 and 0.3339 and 0.39.

**Q.** What about the “F-F0/F0 (rep 1-3)” value ([2]; 0.00025 M detergent) of the same molecule?
**A.** Its value is 0.511 and 0.3507 and 0.554.

**Q.** What about the “F-F0/F0 (rep 1-3)” value ([2]; 0.0005 M detergent) of the same molecule?
**A.** The value was 0.462 and 0.3634 and 0.631.

**Q.** And the Kd ([2]; Figure 5A, detergent binding to hCD1d, read-out: ITF - Kd (uM) average)?
**A.** Its Kd is 4.9 µM.

**Q.** And the Kd ([2]; detergent with 100 nM hCD1d, 25°C, 1X PBS pH 7.4, apparent, read-out: K D (ITF))?
**A.** The Kd was 4.9 ± 0.7 µM.

**Q.** And the Kd ([3]; 100 nM peptide/HLA, 25°C, read-out: K D (ITF), peptide/HLA)?
**A.** The Kd was 7.7 ± 0.8 µM.

**Q.** And the “ITF change in Trp fluorescence (F-F0/F0)” value ([3]; concentration 3.05e-8 (unit not given))?
**A.** The value was 0.

**Q.** And the “ITF change in Trp fluorescence (F-F0/F0)” value ([3]; concentration 6.1e-8 (unit not given))?
**A.** The value was -0.0537 and 0.114 and 0.0797.

**Q.** What about the “ITF change in Trp fluorescence (F-F0/F0)” value ([3]; concentration 1.22e-7 (unit not given)) of the same molecule?
**A.** Its value is 0.119 and -0.000172 and -0.0554.

**Q.** And the “ITF change in Trp fluorescence (F-F0/F0)” value ([3]; concentration 2.44e-7 (unit not given))?
**A.** The value was -0.00869 and 0.126 and 0.0688.

**Q.** And the “ITF change in Trp fluorescence (F-F0/F0)” value ([3]; concentration 4.88e-7 (unit not given))?
**A.** The value was 0.121 and 0.101 and 0.0628.

**Q.** And the “ITF change in Trp fluorescence (F-F0/F0)” value ([3]; concentration 9.77e-7 (unit not given))?
**A.** The value was 0.12 and -0.0283 and -0.0494.

**Q.** What about the “ITF change in Trp fluorescence (F-F0/F0)” value ([3]; concentration 1.95e-6 (unit not given)) of the same molecule?
**A.** Its value is 0.159 and 0.0122 and -0.04.

**Q.** What about the “ITF change in Trp fluorescence (F-F0/F0)” value ([3]; concentration 3.91e-6 (unit not given)) of the same molecule?
**A.** The value was 0.0962 and 0.218 and 0.169.

**Q.** And the “ITF change in Trp fluorescence (F-F0/F0)” value ([3]; concentration 7.81e-6 (unit not given))?
**A.** Its value is 0.176 and 0.206 and 0.0921.

**Q.** And the “ITF change in Trp fluorescence (F-F0/F0)” value ([3]; concentration 1.56e-5 (unit not given))?
**A.** The value was 0.336 and 0.182 and 0.11.

**Q.** What about the “ITF change in Trp fluorescence (F-F0/F0)” value ([3]; concentration 3.13e-5 (unit not given)) of the same molecule?
**A.** Its value is 0.356 and 0.339 and 0.0994.

**Q.** And the “ITF change in Trp fluorescence (F-F0/F0)” value ([3]; concentration 6.25e-5 (unit not given))?
**A.** The value was 0.189 and 0.365 and 0.248.

**Q.** And the “ITF change in Trp fluorescence (F-F0/F0)” value ([3]; concentration 0.000125 (unit not given))?
**A.** Its value is 0.38 and 0.23 and 0.139.

**Q.** What about the “ITF change in Trp fluorescence (F-F0/F0)” value ([3]; concentration 0.00025 (unit not given)) of the same molecule?
**A.** Its value is 0.261 and 0.271 and 0.181.

**Q.** And the “ΔT m (nanoDSF), peptide/HLA” value ([4]; absence vs maximum concentration of detergent, 1 μM peptide/HLA)?
**A.** Its value is “≈ −0.3 °C”.

**Q.** And the “nanoDSF melting temperature of peptide/HLA” value ([4]; concentration 0.030518 (unit not given))?
**A.** Its value is 55.19 and 55.32 and 55.37.

**Q.** And the “nanoDSF melting temperature of peptide/HLA” value ([4]; concentration 0.061035 (unit not given))?
**A.** Its value is 55.29 and 55.45 and 55.24.

**Q.** And the “nanoDSF melting temperature of peptide/HLA” value ([4]; concentration 0.12207 (unit not given))?
**A.** Its value is 55.51 and 55.26 and 55.3.

**Q.** What about the “nanoDSF melting temperature of peptide/HLA” value ([4]; concentration 0.244141 (unit not given)) of the same molecule?
**A.** The value was 55.15 and 55.36 and 55.47.

**Q.** What about the “nanoDSF melting temperature of peptide/HLA” value ([4]; concentration 0.488281 (unit not given)) of the same molecule?
**A.** The value was 55.37 and 55.28 and 55.18.

**Q.** And the “nanoDSF melting temperature of peptide/HLA” value ([4]; concentration 0.976563 (unit not given))?
**A.** The value was 55.33 and 55.35 and 55.37.

**Q.** What about the “nanoDSF melting temperature of peptide/HLA” value ([4]; concentration 1.95312 (unit not given)) of the same molecule?
**A.** The value was 55.37 and 55.15.

**Q.** What about the “nanoDSF melting temperature of peptide/HLA” value ([4]; concentration 3.90625 (unit not given)) of the same molecule?
**A.** Its value is 55.29 and 55.17 and 55.23.

**Q.** And the “nanoDSF melting temperature of peptide/HLA” value ([4]; concentration 7.8125 (unit not given))?
**A.** The value was 55.43 and 55.31 and 55.36.

**Q.** And the “nanoDSF melting temperature of peptide/HLA” value ([4]; concentration 15.625 (unit not given))?
**A.** Its value is 55.24 and 55.22 and 55.41.

**Q.** What about the “nanoDSF melting temperature of peptide/HLA” value ([4]; concentration 31.25 (unit not given)) of the same molecule?
**A.** Its value is 55.63 and 55.25 and 55.23.

**Q.** What about the “nanoDSF melting temperature of peptide/HLA” value ([4]; concentration 62.5 (unit not given)) of the same molecule?
**A.** Its value is 55.32 and 55.31 and 55.25.

**Q.** And the “nanoDSF melting temperature of peptide/HLA” value ([4]; concentration 125 (unit not given))?
**A.** The value was 55.13 and 55.18 and 55.19.

**Q.** And the “nanoDSF melting temperature of peptide/HLA” value ([4]; concentration 250 (unit not given))?
**A.** Its value is 55.22 and 55.06 and 55.24.

**Q.** And the “nanoDSF melting temperature of peptide/HLA” value ([4]; concentration 500 (unit not given))?
**A.** Its value is 54.35 and 55.14 and 54.93.

**Q.** And the “nanoDSF melting temperature of peptide/HLA” value ([4]; concentration 1000 (unit not given))?
**A.** Its value is 55.13 and 54.89 and 54.93.

**Q.** What about the “stripping of lipid antigens from CD1c (in words)” value (CD1c) of the same molecule?
**A.** Its value is “could efficiently strip lipid antigens away”.
